Laboratory results published in patent publication US20140371244A1, “METHOD FOR TREATING PROSTATE CANCER BY USE OF PHARMACEUTICAL COMPOSITION CONTAINING A3 ADENOSINE RECEPTOR AGONIST” (priority 2009, published 2014).

What was measured:
[1] = test system: human colorectal cancer HCT 116 cells; experiment: SRB assay, growth of HCT 116 cells; format: cell-based; conditions: 72 hours; for growth of HCT 116 cells: 100, 50, 25 and 12.5 μM; for IC50: SRB
Experimental: In order to compare the inhibitory effect of thio-Cl-IB-MECA of the present invention on the inhibition of human colorectal cancer HCT 116 cells with the effects of other A3 adenosine receptor agonists, IB-MECA and Cl-IB-MECA, a sulforhodamine B (SRB) assay was performed.
Specifically, 10 μL of a solution of thio-Cl-IB-MECA in 10% dimethylsulfoxide (DMSO) was loaded in each well of a 96-well plate in triplicate at concentrations of 100, 50, 25 and 12.5 μM, thus making a test plate. Cells were diluted to a density of 5×10^4 cells/ml with 10% FBS-containing RPMI 1640 medium supplemented with antibiotics-antimycotics, and 190 μL of the cell suspension was added to each well so as to reach a total volume of 200 μL and was cultured in a 5% CO2 incubator at 37° C. for 3 days. At the same time, 190 μL of the same cell suspension was loaded into each of 16 wells or more of a fresh 96-well plate containing no sample (thio-Cl-IB-MECA) and was cultured in a 5% CO2 incubator at 37° C. for 30 minutes, thereby determining reference date. After the culture, 50 μL of 50% trichloroacetic acid (TCA) was added to each well, and the cells were fixed by culture at 4° C. for 1 hour. Then, the well plate was washed five times with tap water and dried. 100 μL of a 1% acetic acid solution containing […] sulforhodamine B (SRB) was added to each well to stain the cells, and the well plate was allowed to stand at room temperature for 1 hour. After the well plate has been washed five times with 1% acetic acid and sufficiently dried, 200 μL of 100 mM Tris-base was added to each well, and the bound staining liquid was dissolved and sufficiently shaken in a shaker. Then, the absorbance at 515 nm was measured using an ELISA microplate reader. Based on the measured absorbance, the cell viability of the test group relative to the control group was calculated using equation 2 above. Based on the viability at each concentration, the IC50 value of the test sample was calculated using TableCurve program.
In the cases of IB-MECA or Cl-IB-MECA, the viability of cancer cells was examined in the same manner as the case of thio-Cl-IB-MECA.

[2] = test system: human colorectal cancer HCT 116 cells; experiment: Anticancer activity in nude mice transplanted with HCT 116 cells; format: in vivo, nude mice (Balb/c-nu/nu mice); conditions: for side effects (such as a change in bodyweight) during the test period: 0.02, 0.2 and 2 mg/kg orally for 21 days
Experimental: HCT 116 cells were prepared at a concentration of 2×10^6 cells/200 μl (RPMI) and administered subcutaneously into the right frank of 6-week-old female nude mice (Balb/c-nu/nu mice). The tumor size was measured with calipers, and the tumor size reached about 100 mm^3, 20 mice having substantially the same tumor size were divided into a control group and three sample-treated groups. The three sample-treated group were administered orally with IB-MECA at doses of 0.02, 0.2 and 2 mg/kg, respectively, for 21 days. In the control group and the sample-treated groups, the bodyweight was measured once every week, and the tumor size was measured at intervals of 3-4 days. The tumor volume was measured using equation 3 above. In the equation, a represents the longer diameter of the tumor, b represents the shorter diameter of the tumor, and c represents the height of the tumor.
Anticancer activity was measured by an animal test in the same manner as Example 20, except that 6-week-old female nude mice were administered with Cl-IB-MECA in place of IB-MECA as a sample.
Anticancer activity was measured by an animal test in the same manner as Example 20, except that 6-week-old female nude mice were administered with thio-Cl-IB-MECA in place of IB-MECA as a sample.

LNCaP cells = experiment: Western blot of cell cycle regulation-related proteins and Wnt signaling in LNCaP cells; format: cell-based, human
Experimental: A test was carried out to examine whether the inhibitory effects of thio-Cl-IB-MECA on the proliferation of LNCaP cells and PC-3 cells are attributable to regulation of the Wnt signaling pathway.
Specifically, each type of LNCaP cells and PC-3 cells was diluted with 10% FBS-containing medium to a density of 1.0×10^6 cells per 100 mm culture dish and cultured under the conditions of 37° C. and 5% CO2 for 24 hours, followed by washing twice with PBS. Thio-Cl-IB-MECA was diluted in 10% FBS-containing medium at required concentration, and then 10 ml of the culture medium prepared in the 100 mm culture dish was added thereto and cultured for a given period. The non-adherent cells and adherent cells in the cell medium were collected and washed twice with PBS, after which the cells were suspended in boiling cell lysis buffer and heated at 100° C. for 5 minutes. The cells were cooled and then stored at […], and the stored cells were thawed at 37° C. immediately before use in protein quantification and electrophoresis. Protein quantification was performed using the BCA method, and […] of protein was electrophoresed on 8-12% SDS-polyacrylamide gel at 150 V for 110 minutes. The gel at the desired site was cut and transferred to a PVDF (polyvinylidene fluoride) for 1 hour, and after which it was washed twice with PBST and stirred in blocking buffer at room temperature for 1 hour. Then, the membrane was washed three times with PBST for 5 minutes each time, after which primary antibody was diluted at a ratio of 1:1,000-1:2,000 with 3% skimmed milk/PBST, and it was sealed together with the membrane and incubated with stirring at 4° C. for 12 hours or more. The membrane was washed 2-3 times with PBST for 5 minutes each time, after which HRP-conjugated secondary antibody was diluted at a ratio of 1:1,500-1:2,000 and incubated with the membrane at room temperature for 2-3 hours. The membrane was washed three times with PBST for 5 minutes each time and treated with a Western blot substrate (WESTSAVE Up™), and the produced luminescence was examined using LAS-3000.

Compound | growth of HCT 116 cells [1] | IC50 [1] [µM] | inhibition rate of tumor growth ([2]; 0.02 mg/kg orally for 21 days) [%] | inhibition rate of tumor growth ([2]; 0.2 mg/kg orally for 21 days) [%] | inhibition rate of tumor growth ([2]; 2 mg/kg orally for 21 days) [%] | side effects (such as a change in bodyweight) during the test period [2] | Wnt signaling pathway, LNCaP (LNCaP cells) | expression and RB phosphorylation of cyclin D, cyclin A, CDK4, c-myc and PCNA, LNCaP (LNCaP cells) | expression of p53 and p27, LNCaP (LNCaP cells)
CNC(=O)[C@H]1O[C@@H](n2cnc3c(NCc4cccc(I)c4)ncnc32)[C@H](O)[C@@H]1O [IB-MECA] | concentration-dependently inhibited the growth | 62.4 | 20.7 | 48.7 | 58.6 | survived healthfully without particular side effects | – | – | –
CNC(=O)[C@H]1S[C@@H](n2cnc3c(NCc4cccc(I)c4)nc(Cl)nc32)[C@H](O)[C@@H]1O [thio-Cl-IB-MECA, 2-chloro-N^6-(3-iodobenzyl)-4′-thioadenosine-5′-N-methyluronamide] | concentration-dependently inhibited the growth | 37.5 | 16.1 | 54.4 | 62.1 | survived healthfully without particular side effects | inhibited the Wnt signaling pathway | inhibited the expression and RB phosphorylation | increased the expression
